Laboratory results as given in the supplement of paper PMC10307832.

Compound: Cc1ccc2nc(NCCN)c3ncc(C)n3c2c1 + Nc1ncn([C@H]2C[C@H](O)[C@@H](CO)O2)c(=O)n1 [Decitabine] (partner 2 µM)
Experiment: relative viability (nuclei count vs DMSO), 5 days (fraction); higher = more cells survive
Conditions: first compound 0.04 µM
Outline: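 A single step with final 0.05% Triton X-100, 1% formaldehyde and 1 ug/ml Hoechst fixed the cells and stained nuclei 5 days after treatment. Lung cancer cell lines in 1536-well plates had been treated by pin tool the day after seeding with one drug alone or a fixed anchor-drug dose plus five library-drug doses (not always all listed) in √10 steps, and nuclei were counted on 4× images. Relative viability is the ratio of nuclei in treated wells to nuclei in vehicle wells, taken as the median of duplicate plates.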

Compared with HCC-44, LU99A is higher in relative viability: 0.981 for the first, 1 for the second.

Going from BEN to HARA, the relative viability falls from 0.623 to 0.492.

Going from HCC-78 to NCI-H322M, the relative viability falls from 0.745 to 0.715.

Compared with LCLC-97TM1, NCI-H2009 is higher in relative viability: 0.215 for the first, 0.364 for the second.

Going from A-427 to NCI-H441, the relative viability falls from 0.557 to 0.235.

First: NCI-H661
Second: NCI-H1734
The relative viability of the first is higher: 0.559 for the first, 0.464 for the second.

Compared with NCI-H460, NCI-H2347 is higher in relative viability: 0.479 for the first, 0.605 for the second.

Going from SK-LU-1 to 201T, the relative viability rises from 0.672 to 0.838.

First: NCI-H1915
Second: HCC-827
The relative viability of the first is lower: 0.265 for the first, 0.335 for the second.

Compared with LXF-289, NCI-H23 is lower in relative viability: 0.388 for the first, 0.312 for the second.

First: NCI-H647
Second: NCI-H1651
The relative viability of the first is lower: 0.508 for the first, 0.628 for the second.

First: EPLC-272H
Second: NCI-H1792
The relative viability of the first is lower: 0.386 for the first, 0.614 for the second.

First: NCI-H1355
Second: NCI-H3122
The relative viability of the first is lower: 0.398 for the first, 0.4 for the second.

Compared with NCI-H1437, NCI-H1755 is higher in relative viability: 0.581 for the first, 0.716 for the second.

First: NCI-H2023
Second: HCC-15
The relative viability of the first is lower: 0.225 for the first, 0.624 for the second.

Going from PC-14 to EKVX, the relative viability rises from 0.227 to 0.335.

Same assay, conditions: first compound 0.1265 µM

First: HOP-62
Second: HCC-44
The relative viability of the first is lower: 0.209 for the first, 0.946 for the second.

Going from LU99A to BEN, the relative viability falls from 0.922 to 0.737.

First: HARA
Second: HCC-78
The relative viability of the first is higher: 0.758 for the first, 0.711 for the second.

First: NCI-H322M
Second: LCLC-97TM1
The relative viability of the first is higher: 0.715 for the first, 0.21 for the second.

Compared with NCI-H2009, A-427 is higher in relative viability: 0.394 for the first, 0.561 for the second.

Going from NCI-H441 to NCI-H661, the relative viability rises from 0.245 to 0.562.

Going from NCI-H1734 to NCI-H460, the relative viability falls from 0.5 to 0.494.

First: NCI-H2347
Second: SK-LU-1
The relative viability of the first is higher: 0.664 for the first, 0.656 for the second.

Compared with 201T, NCI-H1915 is lower in relative viability: 0.818 for the first, 0.248 for the second.

Compared with HCC-827, LXF-289 is higher in relative viability: 0.325 for the first, 0.409 for the second.

First: NCI-H23
Second: NCI-H647
The relative viability of the first is lower: 0.356 for the first, 0.362 for the second.

Compared with NCI-H1651, EPLC-272H is lower in relative viability: 0.664 for the first, 0.386 for the second.

Going from NCI-H1792 to NCI-H1355, the relative viability falls from 0.553 to 0.364.

Going from NCI-H3122 to NCI-H1437, the relative viability rises from 0.449 to 0.526.

First: NCI-H1755
Second: NCI-H2023
The relative viability of the first is higher: 0.764 for the first, 0.227 for the second.

Going from HCC-15 to PC-14, the relative viability falls from 0.693 to 0.237.

EKVX showed a relative viability of 0.35.

Same assay, conditions: first compound 0.4 µM

Compared with HOP-62, HCC-44 is higher in relative viability: 0.241 for the first, 0.923 for the second.

First: LU99A
Second: BEN
The relative viability of the first is higher: 0.91 for the first, 0.686 for the second.

Compared with HARA, HCC-78 is higher in relative viability: 0.651 for the first, 0.735 for the second.

Going from NCI-H322M to LCLC-97TM1, the relative viability falls from 0.707 to 0.244.

Going from NCI-H2009 to A-427, the relative viability rises from 0.436 to 0.547.

Going from NCI-H441 to NCI-H661, the relative viability rises from 0.191 to 0.56.

Compared with NCI-H1734, NCI-H460 is higher in relative viability: 0.458 for the first, 0.5 for the second.

Going from NCI-H2347 to SK-LU-1, the relative viability rises from 0.603 to 0.744.

First: 201T
Second: NCI-H1915
The relative viability of the first is higher: 0.862 for the first, 0.267 for the second.

Going from HCC-827 to LXF-289, the relative viability rises from 0.333 to 0.365.

First: NCI-H23
Second: NCI-H647
The relative viability of the first is lower: 0.321 for the first, 0.43 for the second.

Going from NCI-H1651 to EPLC-272H, the relative viability falls from 0.69 to 0.395.

First: NCI-H1355
Second: NCI-H3122
The relative viability of the first is lower: 0.345 for the first, 0.377 for the second.

Compared with NCI-H1437, NCI-H1755 is higher in relative viability: 0.596 for the first, 0.681 for the second.

Compared with NCI-H2023, HCC-15 is higher in relative viability: 0.241 for the first, 0.474 for the second.

First: PC-14
Second: EKVX
The relative viability of the first is lower: 0.247 for the first, 0.345 for the second.

Same assay, conditions: first compound 1.265 µM

First: HOP-62
Second: HCC-44
The relative viability of the first is lower: 0.177 for the first, 0.94 for the second.

Compared with LU99A, BEN is higher in relative viability: 0.812 for the first, 0.885 for the second.

Compared with HARA, HCC-78 is higher in relative viability: 0.419 for the first, 0.664 for the second.

First: NCI-H322M
Second: LCLC-97TM1
The relative viability of the first is higher: 0.748 for the first, 0.22 for the second.

Compared with NCI-H2009, A-427 is higher in relative viability: 0.395 for the first, 0.58 for the second.

Compared with NCI-H441, NCI-H661 is higher in relative viability: 0.26 for the first, 0.513 for the second.

NCI-H1734 and NCI-H460 are the same in relative viability: 0.501 for the first, 0.501 for the second.

Going from NCI-H2347 to SK-LU-1, the relative viability rises from 0.645 to 0.665.

Compared with 201T, NCI-H1915 is lower in relative viability: 0.901 for the first, 0.253 for the second.

Compared with HCC-827, LXF-289 is lower in relative viability: 0.391 for the first, 0.353 for the second.

Going from NCI-H23 to NCI-H647, the relative viability rises from 0.328 to 0.421.

Going from NCI-H1651 to EPLC-272H, the relative viability falls from 0.637 to 0.341.

Going from NCI-H1792 to NCI-H1355, the relative viability falls from 0.511 to 0.356.

Compared with NCI-H3122, NCI-H1437 is lower in relative viability: 0.541 for the first, 0.495 for the second.

Going from NCI-H1755 to NCI-H2023, the relative viability falls from 0.7 to 0.256.

Compared with HCC-15, PC-14 is lower in relative viability: 0.598 for the first, 0.179 for the second.

EKVX showed a relative viability of 0.32.

Same assay, conditions: first compound 4 µM

First: HOP-62
Second: HCC-44
The relative viability of the first is lower: 0.234 for the first, 1 for the second.

Going from LU99A to BEN, the relative viability falls from 0.833 to 0.685.

Compared with HARA, HCC-78 is higher in relative viability: 0.546 for the first, 0.617 for the second.

First: NCI-H322M
Second: LCLC-97TM1
The relative viability of the first is higher: 0.812 for the first, 0.236 for the second.

First: NCI-H2009
Second: A-427
The relative viability of the first is lower: 0.368 for the first, 0.539 for the second.

Going from NCI-H441 to NCI-H661, the relative viability rises from 0.235 to 0.552.

First: NCI-H1734
Second: NCI-H460
The relative viability of the first is higher: 0.511 for the first, 0.434 for the second.

Compared with NCI-H2347, SK-LU-1 is higher in relative viability: 0.585 for the first, 0.69 for the second.

Going from 201T to NCI-H1915, the relative viability falls from 0.839 to 0.238.

First: HCC-827
Second: LXF-289
The relative viability of the first is lower: 0.284 for the first, 0.423 for the second.

Going from NCI-H23 to NCI-H647, the relative viability falls from 0.34 to 0.335.

Compared with NCI-H1651, EPLC-272H is lower in relative viability: 0.518 for the first, 0.327 for the second.

Going from NCI-H1792 to NCI-H1355, the relative viability falls from 0.461 to 0.367.

First: NCI-H3122
Second: NCI-H1437
The relative viability of the first is lower: 0.421 for the first, 0.498 for the second.

Going from NCI-H1755 to NCI-H2023, the relative viability falls from 0.723 to 0.2.

Going from HCC-15 to PC-14, the relative viability falls from 0.522 to 0.148.

Cell Line EKVX has a relative viability of 0.28.
